Results: patent US5922724A, “Benzimidazole compounds and their use as modulators of the GABA a receptor complex” (Neurosearch A/S, priority 1995, dated 1999)

Biological target: benzodiazepine receptor sites (GABAA receptor complex)
Assay: Displacement of ^3 H-flunitrazepam (^3 H-FNM) binding to rat cerebral cortex membranes
Set-up: species or system male Wistar rats (cerebral cortex)
Conditions: ^3 H-FNM 1 nM, 40 min at 2° C., pH 7.1, non-specific binding with clonazepam 1 μM, read-out: IC50 (concentration of the test substance which inhibits the specific binding of ^3 H-FNM by 50%)
Text: At present two types of GABA receptors are known, the GABAA and the GABAB receptors. […] Activation of GABA receptors leads to alternations in membrane potential (hyperpolarization). The GABAA receptors are associated with chloride influx through its associated and integrated chloride channel, whereas GABAB receptor activation indirectly alters potassium and calcium channels as well as modifies second messenger production. The GABAA recognition sites can be activated by GABA, muscimol; and isoguvacine for example, but not by GABAB agonists such as for example baclofen. The modulatory GABAA recognition site at the benzodiazepine receptor sites can be selectively radiolabelled with ^3 H-flunitrazepam. The affinity of various potential ligands for the benzodiazepine receptor sites can thus be evaluated by estimating the ability of test compounds to displace ^3 H-flunitrazepam.
Preparations are performed at 0-4° C. unless otherwise indicated. Cerebral cortex from male Wistar rats (150-200 g) is homogenized for 5-10 sec in 20 ml Tris-HCl (30 mM, pH 7.4) using an Ultra-Turrax homogenizer. […]
The membrane preparation is thawed and centrifuged at 2° C. for 10 min at 27,000× g. […] Non-specific binding is determined using clonazepam (1 μM, final concentration). […] The amount of radioactivity on the filters is determined by conventional liquid scintillation counting. […]

Row | SMILES | IC50
1 | c1cc(-n2ccnc2)cc(-n2cnc3cc(-c4ccoc4)ccc32)c1 [1-(3-(1-Imidazolyl)phenyl)-5-(3-furanyl)benzimidazole] | 400 pM
2 | Cc1nccn1-c1cccc(-n2cnc3cc(-c4ccoc4)ccc32)c1 [1-(3-(2-Methylimidazol-1-yl)phenyl)-5-(3-furanyl)benzimidazole] | 400 pM
